Tests used:
[1] = test system: VY-F-1 hybrid yellow mice; assay: (U-14C)-D-glucose incorporation in tissues of mice after a glucose load; assay type: in vivo
Method: containing an appropriate amount of (U-^14 C)-D-glucose (Amersham Radiochemicals, Arlington Heights, IN) so that about 8×10^5 dpm of radiolabeled glucose was given per mouse. Sixty minutes after administration of the mixture, the mice were sacrificed and fragments of liver, diaphragm, and adipose tissue were quickly excised and weighed in a torsion balance. The pieces were placed in vials and digested for 2 hr at 55° C. in 1 molar KOH. After cooling to room temperature, the scintillation liquid was added to the vials. Radioactivity was measured the next day, and an average efficiency of 60% was measured using the internal standard method. Samples of blood were collected at the desired time by intraorbital puncture. Glucose content in the chilled plasma was determined in triplicates by the glucose oxidase method. Blood concentration of radioactive glucose was determined using 20 μl of plasma. Glucose incorporation (GI), expressed in arbitrary units, was calculated by the following equation for the various tissues: [formula] The specific activity of plasma glucose is defined as disintegrations per minute of radioactivity×1000 per 100 μl plasma, divided by milligrams of glucose per 100 ml. of plasma. Statistical significance was determined by 1-way analysis of variance and Duncan's multiple range t-test. Yellow (A^vy /A) and agouti (A/a) virgin (BALB/c×VY)F-1 hybrid female mice were produced by mating BALB/[…] females by […] males. The mice were housed 3 per 7"×5"×11" polypropylene cage with pine shavings as bedding and fed Wayne Lab Blox (Allied Mills, Inc.) 10% fat diet and tap water ad libitum. Ambient temperature was about 22±1° C., and a 12 hr light cycle was maintained. […] Whereas the effect upon the incorporation of glucose in the diaphragm was of lesser magnitude, it is possible that the values represent the maximal rate of glucose utilization by this muscle. […] Further testing was carried out on other mice to show the effect of insulin on the utilization of glucose in similar mice. Because the animals were obese and a maximal effect was desired, a large amount of hormone (50 milliunits per mouse) were used.

[2] = Plasma glucose in mice given a glucose load (glucose oxidase method); assay type: in vivo; conditions: for Plasma Glucose 0 min: sample at 0 min; for Plasma Glucose 60 min: sample at 60 min
Method: Injections were made intraperitoneally 30 min before administration of a glucose load of 2 mg/g of body weight containing an appropriate amount of (U-^14 C)-D-glucose (Amersham Radiochemicals, Arlington Heights, IN) so that about 8×10^5 dpm of radiolabeled glucose was given per mouse. Sixty minutes after administration of the mixture, the mice were sacrificed and fragments of liver, diaphragm, and adipose tissue were quickly excised and weighed in a torsion balance. The pieces were placed in vials and digested for 2 hr at 55° C. in 1 molar KOH. After cooling to room temperature, the scintillation liquid was added to the vials. Radioactivity was measured the next day, and an average efficiency of 60% was measured using the internal standard method. Samples of blood were collected at the desired time by intraorbital puncture. Glucose content in the chilled plasma was determined in triplicates by the glucose oxidase method. Blood concentration of radioactive glucose was determined using 20 μl of plasma. Glucose incorporation (GI), expressed in arbitrary units, was calculated by the following equation for the various tissues: [formula]
Further testing was carried out on other mice to show the effect of insulin on the utilization of glucose in similar mice. Because the animals were obese and a maximal effect was desired, a large amount of hormone (50 milliunits per mouse) were used.

[3] = test system: adipose tissue from hypophysectomized rats; assay: Stimulation of glucose oxidation in adipose tissue from hypophysectomized rats; assay type: cell-based; conditions: for ability to stimulate glucose oxidation in adipose tissue: native peptides at concentrations up to 50 μg per ml
Source text: Biochem., 11, 559-570. The detailed extraction procedure actually employed is set forth in "Human Growth Hormone Peptide 1-43: Isolation from Pituitary Glands", Singh et al., J. Protein Chem., (in press) (1983).

[4] = Hypoglycemic activity of insulin when the peptide is given together with insulin; assay type: in vivo
[5] = mice; Frigeri et al., Endocrine Society Abstract #88; cited from earlier work
[6] = Table I, increase versus saline, 50 μg, 30 min before glucose
[7] = Table IA, increase versus saline, 50 μg, 30 min before glucose
[8] = Group B: insulin 50 mU per mouse 30 min before glucose
[9] = Group B: insulin 50 mU per mouse 30 min before glucose, listed as insulin
[10] = Group C: insulin 50 mU per mouse 5 min before glucose load
[11] = Group C: insulin 50 mU per mouse 5 min before glucose load, listed as insulin

CC[C@H](C)[C@H](NC(=O)[C@H](Cc1ccc(O)cc1)NC(=O)[C@H](C)NC(=O)[C@H](CCC(=O)O)NC(=O)[C@H](CCC(=O)O)NC(=O)[C@H](Cc1ccccc1)NC(=O)[C@H](CCC(=O)O)NC(=O)[C@H](CCC(N)=O)NC(=O)[C@H](Cc1ccc(O)cc1)NC(=O)[C@@H](NC(=O)[C@H](CC(=O)O)NC(=O)[C@H](Cc1ccccc1)NC(=O)[C@H](C)NC(=O)[C@H](CC(C)C)NC(=O)[C@H](CCC(N)=O)NC(=O)[C@H](Cc1c[nH]cn1)NC(=O)[C@H](CC(C)C)NC(=O)[C@H](CCCNC(=N)N)NC(=O)[C@H](Cc1c[nH]cn1)NC(=O)[C@H](C)NC(=O)[C@H](CCCNC(=N)N)NC(=O)[C@H](CC(C)C)NC(=O)[C@H](CCSC)NC(=O)[C@H](C)NC(=O)[C@H](CC(N)=O)NC(=O)[C@H](CC(=O)O)NC(=O)[C@H](Cc1ccccc1)NC(=O)[C@H](CC(C)C)NC(=O)[C@H](CCCNC(=N)N)NC(=O)[C@H](CO)NC(=O)[C@H](CC(C)C)NC(=O)[C@@H]1CCCN1C(=O)[C@@H](NC(=O)[C@@H](NC(=O)[C@@H]1CCCN1C(=O)[C@@H](N)Cc1ccccc1)[C@@H](C)O)[C@@H](C)CC)[C@@H](C)O)C(=O)N1CCC[C@H]1C(=O)N[C@@H](CCCCN)C(=O)N[C@@H](CCC(=O)O)C(=O)N[C@@H](CCC(N)=O)C(=O)N[C@@H](CCCCN)C(=O)N[C@@H](Cc1ccc(O)cc1)C(=O)N[C@@H](CO)C(=O)O [hGH(1-43), H--Phe--Pro--Thr--Ile--Pro--Leu--Ser--Arg--Leu--Phe--Asp--Asn--Ala--Met--Leu--Arg--Ala--His--Arg--Leu--His--Gln--Leu--Ala--Phe--Asp--Thr--Tyr--Gln--Glu--Phe--Glu--Glu--Ala--Tyr--Ile--Pro--Lys--Glu--Gln--Lys--Tyr--Ser--OH]
Glucose Incorporation Diaphragm ([1]; Table I, 50 μg intraperitoneally 30 min before glucose load, Mean ± SEM): 52.0 arbitrary units/g of tissue
Glucose Incorporation Liver ([1]; Table I, 50 μg intraperitoneally 30 min before glucose load, tissue 60 min after glucose, Mean ± SEM): 135.9 arbitrary units/g of tissue
Glucose Incorporation Adipose Tissue (%) [1, 6]: 63%
Glucose Incorporation Diaphragm (%) [1, 6]: 17%
Glucose Incorporation Liver ([1]; Table IA, 50 μg 30 min before glucose load, Mean ± SEM): 115.2 ± 16 arbitrary units/g of tissue
Glucose Incorporation Liver (%) [1, 7]: 35%
change of plasma glucose after administration of the peptide ([2]; after administration of hGH(1-43)): no significant decrease
stimulation of in vitro glucose oxidation in adipose tissue ([3]; in vitro): does not stimulate
ability to stimulate glucose oxidation in adipose tissue [3]: inactive
hypoglycemic activity of insulin [4]: an increase of its hypoglycemic activity is observed

GH: purified growth hormone, used as active comparator in the glucose oxidation assay
level at which glucose oxidation stimulating activity is shown ([3]; purified GH): 0.2 ng per ml

H-AHRLHQLAFDTYQEFEEAYIPKEQKYS-OH [hGH(17-43), H--Ala--His--Arg--Leu--His--Gln--Leu--Ala--Phe--Asp--Thr--Tyr--Gln--Glu--Phe--Glu--Glu--Ala--Tyr--Ile--Pro--Lys--Glu--Gln--Lys--Tyr--Ser--OH]
Glucose Incorporation Liver (%) [1, 7]: ~35%
ability to stimulate glucose oxidation in adipose tissue [3]: inactive

Insulin: hormone which controls storage and oxidation of sugar; given at 50 mU per mouse
Glucose Incorporation Adipose Tissue [1, 8]: 9.1 ± 0.82 arbitrary units/g of tissue
Glucose Incorporation Diaphragm [1, 8]: 54.4 ± 2.8 arbitrary units/g of tissue
Glucose Incorporation Liver [1, 8]: 36.6 ± 2.6 arbitrary units/g of tissue
Glucose Incorporation Adipose Tissue [1, 9]: rose
Glucose Incorporation Diaphragm [1, 9]: rose
Glucose Incorporation Liver [1, 9]: fell sharply below control levels
Glucose Incorporation Adipose Tissue [1, 10]: 9.0 ± 1.05 arbitrary units/g of tissue
Glucose Incorporation Diaphragm [1, 10]: 52.2 ± 2.4 arbitrary units/g of tissue
Glucose Incorporation Liver [1, 10]: 64.4 ± 9.5 arbitrary units/g of tissue
Glucose Incorporation Adipose Tissue [1, 11]: rose to values similar to those observed in the -30 minute treated group
Glucose Incorporation Diaphragm [1, 11]: rose to values similar to those observed in the -30 minute treated group
Glucose Incorporation Liver [1, 11]: remained unchanged
Plasma Glucose 0 min [2, 8]: 70 ± 8.3 mg/dL
Plasma Glucose 0 min [2, 9]: dropped sharply
Plasma Glucose 60 min [2, 8]: 182 ± 11.8 mg/dL
Plasma Glucose -30 min ([2]; Group B: insulin 50 mU per mouse 30 min before glucose, sample at -30 min): 122 ± 2.8 mg/dL
Plasma Glucose 0 min [2, 10]: 151. ± 9.5 mg/dl
Plasma Glucose 60 min [2, 10]: 270 ± 31 mg/dL
Plasma Glucose -5 min ([2]; Group C: insulin 50 mU per mouse 5 min before glucose load, sample at -5 min): 129 ± 6.5 mg/dL

fragment corresponding to amino acid residues 32-46: fragment corresponding to amino acid residues 32-46 of human GH (literature) (EEAYIPKEQKYSFLQ; UniProt P01241 58-72, looked up, fragment)
glucose tolerance [5]: could improve the glucose tolerance
